Experimental data published in patent US9738902B2, “Modified PYR/PYL receptors activated by ligands” (priority 2013, dated 2017).

Assays:
Type in all cases: cell-based
PYR1 K59R F159I = molecular target: T1, PYR1 K59R F159I (Arabidopsis thaliana, UniProt O49686, F159I/K59R); test: Y2H Pocket Library Screen (HAB1, X-gal)
T1 construct: expressed in transfected cells; host or cells: S. cerevisiae Y190 two-hybrid reporter strain
Procedure: (§1) The set of 475 mutant plasmids were individually transformed into the Y190 yeast two hybrid reporter strain co-transformed with pACT-HAB1, as previously described (Park et al., 2009). The yeast strains generated were arrayed into 96-well plates yielding what we refer to as the “pocket library”. The pocket library strains were spotted onto agar plates containing selective synthetic dextrose (minus Leu & Trp) medium that was supplemented with a single test compound at 100 μM. The pocket library strains were separately tested for responsiveness to the following compounds: dichlobenil, benzothiadiazole, mandipropamid, fludioxonil, and benoxacor. After incubating test plates at 30° C. for two days, colonies were chloroform lysed and stained to reveal β-galactosidase expression levels, using previously described methods (Park et al., 2009). Mutants displaying responsiveness to the test compound, if present, were identified by virtue of X-gal staining and then subjected to subsequent optimization efforts. Using this approach we identified mutations that conferred detectable sensitivity to the compounds tested (see entries labeled “Pocket Library Screens” in Table 1).

PYR1 K59R T162Y = molecular target: T2, PYR1 K59R T162Y (Arabidopsis thaliana, UniProt O49686, K59R/T162Y); test: Y2H Pocket Library Screen (HAB1, X-gal)
T2 construct: expressed in transfected cells; host or cells: S. cerevisiae Y190
Procedure: as §1

PYR1 K59R T162K = molecular target: T3, PYR1 K59R T162K (Arabidopsis thaliana, UniProt O49686, K59R/T162K); test: Y2H Pocket Library Screen (HAB1, X-gal)
T3 construct: expressed in transfected cells; host or cells: S. cerevisiae Y190
Procedure: as §1

PYR1 K59R V83L = molecular target: T4, PYR1 K59R V83L (Arabidopsis thaliana, UniProt O49686, K59R/V83L); test: Y2H Pocket Library Screen (HAB1, X-gal)
T4 construct: expressed in transfected cells; host or cells: S. cerevisiae Y190 yeast two-hybrid reporter strain
Procedure: as §1

PYR1 K59R F159C = molecular target: T5, PYR1 K59R F159C (Arabidopsis thaliana, UniProt O49686, F159C/K59R); test: Y2H Pocket Library Screen (HAB1, X-gal)
T5 construct: expressed in transfected cells; host or cells: S. cerevisiae Y190 two-hybrid reporter strain
Procedure: as §1

PYR1 K59R M158V = molecular target: T6, PYR1 K59R M158V (Arabidopsis thaliana, UniProt O49686, K59R/M158V); test: Y2H Pocket Library Screen (HAB1, X-gal)
T6 construct: expressed in transfected cells; host or cells: S. cerevisiae Y190 two-hybrid reporter strain
Procedure: as §1

PYR1 K59R F159V = molecular target: T7, PYR1 K59R F159V (Arabidopsis thaliana, UniProt O49686, F159V/K59R); test: Y2H Pocket Library Screen (HAB1, X-gal)
T7 construct: expressed in transfected cells; host or cells: S. cerevisiae Y190
Procedure: as §1

PYR1 K59R F159M = molecular target: T8, PYR1 K59R F159M (Arabidopsis thaliana, UniProt O49686, F159M/K59R); test: Y2H Pocket Library Screen (HAB1, X-gal)
T8 construct: expressed in transfected cells; host or cells: S. cerevisiae Y190
Procedure: as §1

PYR1 K59R E141K = molecular target: T9, PYR1 K59R E141K (Arabidopsis thaliana, UniProt O49686, E141K/K59R); test: Y2H Pocket Library Screen (HAB1, X-gal)
T9 construct: expressed in transfected cells; host or cells: S. cerevisiae Y190 two-hybrid reporter strain
Procedure: as §1

PYR1 K59R A89C = molecular target: T10, PYR1 K59R A89C (Arabidopsis thaliana, UniProt O49686, A89C/K59R); test: Y2H Pocket Library Screen (HAB1, X-gal)
T10 construct: expressed in transfected cells; host or cells: S. cerevisiae Y190 yeast two-hybrid reporter strain
Procedure: as §1

PYR1 K59R V81I = molecular target: T11, PYR1 K59R V81I (Arabidopsis thaliana, UniProt O49686, K59R/V81I); test: Y2H Pocket Library Screen (HAB1, X-gal)
T11 construct: expressed in transfected cells; host or cells: S. cerevisiae Y190 yeast two-hybrid reporter strain
Procedure: as §1

PYR1 K59R M158I = molecular target: T12, PYR1 K59R M158I (Arabidopsis thaliana, UniProt O49686, K59R/M158I); test: Y2H Pocket Library Screen (HAB1, X-gal)
T12 construct: expressed in transfected cells; host or cells: S. cerevisiae Y190 two-hybrid reporter strain
Procedure: as §1

PYR1 K59R M158T = molecular target: T13, PYR1 K59R M158T (Arabidopsis thaliana, UniProt O49686, K59R/M158T); test: Y2H Pocket Library Screen (HAB1, X-gal)
T13 construct: expressed in transfected cells; host or cells: S. cerevisiae Y190 two-hybrid reporter strain
Procedure: as §1

PYR1 K59R L117C = molecular target: T14, PYR1 K59R L117C (Arabidopsis thaliana, UniProt O49686, K59R/L117C); test: Y2H Pocket Library Screen (HAB1, X-gal)
T14 construct: expressed in transfected cells; host or cells: S. cerevisiae Y190 two-hybrid reporter strain
Procedure: as §1

PYR1 K59R E141Y = molecular target: T15, PYR1 K59R E141Y (Arabidopsis thaliana, UniProt O49686, E141Y/K59R); test: Y2H Pocket Library Screen (HAB1, X-gal)
T15 construct: expressed in transfected cells; host or cells: S. cerevisiae Y190 two-hybrid reporter strain
Procedure: as §1

PYR1 K59R F159L = molecular target: T16, PYR1 K59R F159L (Arabidopsis thaliana, UniProt O49686, F159L/K59R); test: Y2H Pocket Library Screen (HAB1, X-gal)
T16 construct: expressed in transfected cells; host or cells: S. cerevisiae Y190
Procedure: as §1

PYR1 K59R T162W = molecular target: T17, PYR1 K59R T162W (Arabidopsis thaliana, UniProt O49686, K59R/T162W); test: Y2H Pocket Library Screen (HAB1, X-gal)
T17 construct: expressed in transfected cells; host or cells: S. cerevisiae Y190
Procedure: as §1

PYR1 K59R V164Y = molecular target: T18, PYR1 K59R V164Y (Arabidopsis thaliana, UniProt O49686, K59R/V164Y); test: Y2H Pocket Library Screen (HAB1, X-gal)
T18 construct: expressed in transfected cells; host or cells: S. cerevisiae Y190 two-hybrid reporter strain
Procedure: as §1

PYR1 K59R F159A = molecular target: T19, PYR1 K59R F159A (Arabidopsis thaliana, UniProt O49686, F159A/K59R); test: Y2H Pocket Library Screen (HAB1, X-gal)
T19 construct: expressed in transfected cells; host or cells: S. cerevisiae Y190 two-hybrid reporter strain
Procedure: as §1

PYR1 K59R F159T = molecular target: T20, PYR1 K59R F159T (Arabidopsis thaliana, UniProt O49686, F159T/K59R); test: Y2H Pocket Library Screen (HAB1, X-gal)
T20 construct: expressed in transfected cells; host or cells: S. cerevisiae Y190
Procedure: as §1

PYR1 K59R V164K = molecular target: T21, PYR1 K59R V164K (Arabidopsis thaliana, UniProt O49686, K59R/V164K); test: Y2H Pocket Library Screen (HAB1, X-gal)
T21 construct: expressed in transfected cells; host or cells: S. cerevisiae Y190
Procedure: as §1

PYR1 K59R A160G = molecular target: T22, PYR1 K59R A160G (Arabidopsis thaliana, UniProt O49686, A160G/K59R); test: Y2H Pocket Library Screen (HAB1, X-gal)
T22 construct: expressed in transfected cells; host or cells: S. cerevisiae Y190
Procedure: as §1

PYR1 K59R M158C = molecular target: T23, PYR1 K59R M158C (Arabidopsis thaliana, UniProt O49686, K59R/M158C); test: Y2H Pocket Library Screen (HAB1, X-gal)
T23 construct: expressed in transfected cells; host or cells: S. cerevisiae Y190 two-hybrid reporter strain
Procedure: as §1

PYR1 K59R A160G V164K = molecular target: T24, PYR1 K59R A160G V164K (Arabidopsis thaliana, UniProt O49686, A160G/K59R/V164K); test: Y2H Combinatorial Mutagenesis Screen I (HAB1, X-gal)
T24 construct: expressed in transfected cells; host or cells: S. cerevisiae Y190 two-hybrid reporter strain
Description: (§2) This screening approach yielded mutants at ligand contacting residues that alter sensitivity to specific ligands. We reasoned that receptor sensitivity could be improved by systematically constructing combinations of the best mutant variants identified in the first round of screening. To test this, we constructed mutant combinations using the strongest mutations identified for mandipropamid, benzothiadiazole, benoxacor or fludioxonil sensitivity. The mutations selected for combinatorial mutagenesis are listed in bold type in Table 1; The mutant combinations were constructed using the QuickChange Lightning Multi Site-Directed PCR Mutagenesis kit (Agilent, USA) using pBD-PYR1^K59R template DNA and mutagenic primers, essentially as previously described (Mosquna et al., 2011). The mutant combinations were sequence validated, introduced into the pACT-HAB1 Y190 reporter strain and then tested for responsiveness to a range of compound concentrations (100, 50, 25, 10, 1, 0.2, 0.1 or 0 μM each test compound). These efforts yielded double mutant receptor variants with improved sensitivity for the 4 compound/receptor pairs examined (see entries labeled “Combinatorial Mutagenesis Screen I” in Table 1).

PYR1 K59R A160G L117C = molecular target: T25, PYR1 K59R A160G L117C (Arabidopsis thaliana, UniProt O49686, A160G/K59R/L117C); test: as above
T25 construct: expressed in transfected cells; host or cells: S. cerevisiae Y190 two-hybrid reporter strain
Description: as §2

PYR1 K59R A89C V164K = molecular target: T26, PYR1 K59R A89C V164K (Arabidopsis thaliana, UniProt O49686, A89C/K59R/V164K); test: as above
T26 construct: expressed in transfected cells; host or cells: S. cerevisiae Y190 two-hybrid reporter strain
Description: as §2

PYR1 K59R E141Y A160G = molecular target: T27, PYR1 K59R E141Y A160G (Arabidopsis thaliana, UniProt O49686, A160G/E141Y/K59R); test: as above
T27 construct: expressed in transfected cells; host or cells: S. cerevisiae Y190 two-hybrid reporter strain
Description: as §2

PYR1 K59R A89C L117C = molecular target: T28, PYR1 K59R A89C L117C (Arabidopsis thaliana, UniProt O49686, A89C/K59R/L117C); test: as above
T28 construct: expressed in transfected cells; host or cells: S. cerevisiae Y190 two-hybrid reporter strain
Description: as §2

PYR1 K59R A89C E141Y = molecular target: T29, PYR1 K59R A89C E141Y (Arabidopsis thaliana, UniProt O49686, A89C/E141Y/K59R); test: as above
T29 construct: expressed in transfected cells; host or cells: S. cerevisiae Y190 two-hybrid reporter strain
Description: as §2

PYR1 K59R A89C A160G = molecular target: T30, PYR1 K59R A89C A160G (Arabidopsis thaliana, UniProt O49686, A160G/A89C/K59R); test: as above
T30 construct: expressed in transfected cells; host or cells: S. cerevisiae Y190 two-hybrid reporter strain
Description: as §2

PYR1 K59R L117C V164K = molecular target: T31, PYR1 K59R L117C V164K (Arabidopsis thaliana, UniProt O49686, K59R/L117C/V164K); test: as above
T31 construct: expressed in transfected cells; host or cells: S. cerevisiae Y190 two-hybrid reporter strain
Description: as §2

T6 sequence (O49686 whole entry K59R/M158V): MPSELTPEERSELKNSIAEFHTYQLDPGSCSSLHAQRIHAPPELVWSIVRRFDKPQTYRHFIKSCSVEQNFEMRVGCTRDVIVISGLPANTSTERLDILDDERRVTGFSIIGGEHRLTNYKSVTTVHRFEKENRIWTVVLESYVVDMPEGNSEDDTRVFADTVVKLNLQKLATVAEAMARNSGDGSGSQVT
T6 sequence (Q9CAJ0 23-511, further chain): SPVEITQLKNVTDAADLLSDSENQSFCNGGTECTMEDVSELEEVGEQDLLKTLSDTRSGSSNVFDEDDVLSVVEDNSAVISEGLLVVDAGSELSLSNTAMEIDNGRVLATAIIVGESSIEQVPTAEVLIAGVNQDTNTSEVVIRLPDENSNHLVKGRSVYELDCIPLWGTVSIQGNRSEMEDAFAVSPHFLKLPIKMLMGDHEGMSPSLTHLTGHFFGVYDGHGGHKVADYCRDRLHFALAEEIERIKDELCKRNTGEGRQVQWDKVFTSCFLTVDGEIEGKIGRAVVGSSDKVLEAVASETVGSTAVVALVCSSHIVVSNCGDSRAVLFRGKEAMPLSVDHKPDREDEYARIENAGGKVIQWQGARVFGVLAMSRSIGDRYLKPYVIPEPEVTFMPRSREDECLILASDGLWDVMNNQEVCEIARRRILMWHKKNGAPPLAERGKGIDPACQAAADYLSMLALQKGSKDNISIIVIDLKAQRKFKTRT
T3 sequence (O49686 whole entry K59R/T162K): as the sequence (O49686 whole entry K59R/M158V) above, with V158M, T162K counted along it
T3 sequence (Q9CAJ0 23-511, further chain): as the sequence (Q9CAJ0 23-511, further chain) above
T26 sequence (O49686 whole entry K59R/A89C/V164K): as the sequence (O49686 whole entry K59R/M158V) above, with A89C, V158M, V164K counted along it
T26 sequence (Q9CAJ0 23-511, stated change not applied, further chain): as the sequence (Q9CAJ0 23-511, further chain) above
T22 sequence (O49686 whole entry K59R/A160G): as the sequence (O49686 whole entry K59R/M158V) above, with V158M, A160G counted along it
T22 sequence (Q9CAJ0 23-511, further chain): as the sequence (Q9CAJ0 23-511, further chain) above
T18 sequence (O49686 whole entry K59R/V164Y): as the sequence (O49686 whole entry K59R/M158V) above, with V158M, V164Y counted along it
T18 sequence (Q9CAJ0 23-511, stated change not applied, further chain): as the sequence (Q9CAJ0 23-511, further chain) above
T1 sequence (O49686 whole entry K59R/F159I): as the sequence (O49686 whole entry K59R/M158V) above, with V158M, F159I counted along it
T1 sequence (Q9CAJ0 23-511, further chain): as the sequence (Q9CAJ0 23-511, further chain) above
T31 sequence (O49686 whole entry K59R/L117C/V164K): as the sequence (O49686 whole entry K59R/M158V) above, with L117C, V158M, V164K counted along it
T31 sequence (Q9CAJ0 23-511, stated change not applied, further chain): as the sequence (Q9CAJ0 23-511, further chain) above

c1ccc2snnc2c1 [Benzothiadiazole, benzothiadiazole]
Threshold (PYR1 K59R F159I): 100 µM
Threshold (PYR1 K59R T162Y): 100 µM
Threshold (PYR1 K59R T162K): 100 µM
Threshold (PYR1 K59R V83L): 100 µM
Threshold (PYR1 K59R F159C): 100 µM
Threshold (PYR1 K59R M158V): 100 µM
Threshold (PYR1 K59R F159V): 100 µM
Threshold (PYR1 K59R F159M): 100 µM
Threshold (PYR1 K59R E141K): 100 µM
Threshold (PYR1 K59R A89C): 100 µM
Threshold (PYR1 K59R V81I): 100 µM
Threshold (PYR1 K59R M158I): 100 µM
Threshold (PYR1 K59R M158T): 100 µM
Threshold (PYR1 K59R L117C): 100 µM
Threshold (PYR1 K59R E141Y): 100 µM
Threshold (PYR1 K59R F159L): 100 µM
Threshold (PYR1 K59R T162W): 100 µM
Threshold (PYR1 K59R V164Y): 100 µM
Threshold (PYR1 K59R F159A): 100 µM
Threshold (PYR1 K59R F159T): 100 µM
Threshold (PYR1 K59R V164K): 100 µM
Threshold (PYR1 K59R A160G): 100 µM
Threshold (PYR1 K59R M158C): 100 µM
Threshold (PYR1 K59R A160G V164K): 5 µM
Threshold (PYR1 K59R A160G L117C): 25 µM
Threshold (PYR1 K59R A89C V164K): 0.2 µM
Threshold (PYR1 K59R E141Y A160G): 5 µM
Threshold (PYR1 K59R A89C L117C): 25 µM
Threshold (PYR1 K59R A89C E141Y): 0.2 µM
Threshold (PYR1 K59R A89C A160G): 5 µM
Threshold (PYR1 K59R L117C V164K): 100 µM
